Data taken from patent US9611267B2, “Substituted tricyclic compounds as FGFR inhibitors” (Incyte Corporation, priority 2012, dated 2017).
Read-outs that look alike come from different tables or passages of the source.

Tests used:
Type in all cases: biochemical
[1] = target: FGFR2 (Homo sapiens (Human), UniProt P21802); assay: FGFR enzymatic assay (FRET peptide phosphorylation), FGFR2; details: FGFR2 enzyme 0.01 nM, ATP 100 μM
Procedure: (§1) The inhibitor potency of the exemplified compounds was measured in an enzyme assay that measures peptide phosphorylation using FRET measurements to detect product formation. Inhibitors were serially diluted in DMSO and a volume of 0.5 μL was transferred to the wells of a 384-well plate. For FGFR3, a 10 μL volume of FGFR3 enzyme (Millipore) diluted in assay buffer (50 mM HEPES, 10 mM MgCl2, 1 mM EGTA, 0.01% Tween-20, 5 mM DTT, pH 7.5) was added to the plate and pre-incubated for 5-10 minutes. Appropriate controls (enzyme blank and enzyme with no inhibitor) were included on the plate. […] The plate was incubated at 25° C. for 1 hr. […] The plate was allowed to equilibrate for ˜1 hr before scanning the wells on a PheraStar plate reader (BMG Labtech).
(§2) The enzymes were purchased from Millipore or Invitrogen.
(§3) GraphPad prism3 was used to analyze the data. The IC50 values were derived by fitting the data to the equation for a sigmoidal dose-response with a variable slope. Y=Bottom+(Top−Bottom)/(1+10^((LogIC50−X)*HillSlope)) where X is the logarithm of concentration and Y is the response.

[2] = target: FGFR1 (Homo sapiens (Human), UniProt P11362); assay: FGFR enzymatic assay (FRET peptide phosphorylation), FGFR1
Procedure: as §1, §2, §3

[3] = target: FGFR3 (Homo sapiens (Human), UniProt P22607); assay: FGFR enzymatic assay (FRET peptide phosphorylation), FGFR3; details: FGFR3 enzyme (Millipore), ATP 140 μM
Procedure: as §1, §3

[4] = FGFR1 enzyme 0.02 nM, ATP 210 μM

Sequence of FGFR2 (P21802 22-821): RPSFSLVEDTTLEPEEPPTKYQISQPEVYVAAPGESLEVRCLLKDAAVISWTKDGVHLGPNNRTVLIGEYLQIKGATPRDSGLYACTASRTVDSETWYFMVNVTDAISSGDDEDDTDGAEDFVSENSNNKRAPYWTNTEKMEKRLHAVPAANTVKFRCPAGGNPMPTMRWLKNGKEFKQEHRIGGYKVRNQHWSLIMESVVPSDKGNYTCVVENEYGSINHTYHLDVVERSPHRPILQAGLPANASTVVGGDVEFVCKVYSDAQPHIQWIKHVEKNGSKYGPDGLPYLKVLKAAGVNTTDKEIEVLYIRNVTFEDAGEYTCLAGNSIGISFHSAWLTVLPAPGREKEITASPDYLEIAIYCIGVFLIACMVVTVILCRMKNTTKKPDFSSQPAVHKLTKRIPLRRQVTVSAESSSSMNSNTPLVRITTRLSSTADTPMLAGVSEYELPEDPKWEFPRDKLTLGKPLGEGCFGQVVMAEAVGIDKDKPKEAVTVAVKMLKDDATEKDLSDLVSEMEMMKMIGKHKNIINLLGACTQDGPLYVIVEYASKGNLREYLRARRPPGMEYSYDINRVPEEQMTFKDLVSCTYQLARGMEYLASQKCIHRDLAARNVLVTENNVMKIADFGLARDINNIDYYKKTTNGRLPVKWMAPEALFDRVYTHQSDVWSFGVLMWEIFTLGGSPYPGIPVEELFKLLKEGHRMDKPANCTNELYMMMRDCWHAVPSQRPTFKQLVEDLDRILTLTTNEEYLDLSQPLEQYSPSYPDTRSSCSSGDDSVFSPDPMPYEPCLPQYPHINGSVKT
Sequence of FGFR1 (P11362 22-822): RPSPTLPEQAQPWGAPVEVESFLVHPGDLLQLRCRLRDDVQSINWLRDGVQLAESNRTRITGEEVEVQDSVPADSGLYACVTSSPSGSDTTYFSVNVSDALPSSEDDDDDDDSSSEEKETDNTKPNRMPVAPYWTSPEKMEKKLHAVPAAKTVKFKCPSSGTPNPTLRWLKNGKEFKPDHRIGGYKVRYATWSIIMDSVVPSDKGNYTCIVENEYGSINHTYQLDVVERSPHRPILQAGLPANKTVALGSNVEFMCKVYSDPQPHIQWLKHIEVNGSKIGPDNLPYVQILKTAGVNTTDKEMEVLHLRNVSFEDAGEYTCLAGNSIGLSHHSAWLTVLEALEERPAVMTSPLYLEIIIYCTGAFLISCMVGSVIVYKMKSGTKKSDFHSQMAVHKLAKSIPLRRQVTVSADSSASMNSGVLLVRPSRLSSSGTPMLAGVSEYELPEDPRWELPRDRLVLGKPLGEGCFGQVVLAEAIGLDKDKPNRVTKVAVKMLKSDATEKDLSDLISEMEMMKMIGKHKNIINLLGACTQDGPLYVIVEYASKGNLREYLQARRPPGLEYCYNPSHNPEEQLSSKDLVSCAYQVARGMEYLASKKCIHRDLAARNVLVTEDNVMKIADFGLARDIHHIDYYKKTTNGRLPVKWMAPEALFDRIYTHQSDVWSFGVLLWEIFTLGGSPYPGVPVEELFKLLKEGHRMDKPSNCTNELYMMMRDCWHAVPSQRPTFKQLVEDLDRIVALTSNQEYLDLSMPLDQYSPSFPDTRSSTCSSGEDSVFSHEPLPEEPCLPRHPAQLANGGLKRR
Sequence of FGFR3 (P22607 23-806): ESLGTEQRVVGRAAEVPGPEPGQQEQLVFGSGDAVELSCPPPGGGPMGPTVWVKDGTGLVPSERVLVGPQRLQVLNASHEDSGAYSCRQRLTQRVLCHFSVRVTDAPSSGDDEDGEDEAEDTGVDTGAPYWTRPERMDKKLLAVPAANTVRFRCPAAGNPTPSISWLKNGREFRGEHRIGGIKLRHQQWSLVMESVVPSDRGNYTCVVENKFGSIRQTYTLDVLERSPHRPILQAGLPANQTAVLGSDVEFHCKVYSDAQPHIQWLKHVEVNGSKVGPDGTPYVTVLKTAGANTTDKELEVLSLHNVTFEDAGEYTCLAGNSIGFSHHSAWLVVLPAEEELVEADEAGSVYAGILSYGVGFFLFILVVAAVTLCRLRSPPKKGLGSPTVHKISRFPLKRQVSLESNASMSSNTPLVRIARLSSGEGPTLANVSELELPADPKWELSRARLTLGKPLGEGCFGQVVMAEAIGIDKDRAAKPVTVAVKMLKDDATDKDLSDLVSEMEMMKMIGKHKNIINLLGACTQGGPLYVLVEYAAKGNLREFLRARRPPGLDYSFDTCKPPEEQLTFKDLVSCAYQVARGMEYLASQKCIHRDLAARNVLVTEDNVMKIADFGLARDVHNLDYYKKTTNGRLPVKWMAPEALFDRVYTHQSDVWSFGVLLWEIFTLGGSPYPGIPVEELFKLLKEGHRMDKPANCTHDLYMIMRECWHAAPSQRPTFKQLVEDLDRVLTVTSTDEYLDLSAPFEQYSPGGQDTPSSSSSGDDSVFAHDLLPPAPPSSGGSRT

Row | Structure (SMILES) | IC50 [1] [nM] | IC50 [2, 4] [nM] | IC50 [3] [nM] | IC50 [2] [nM]
1 | COc1cc(OC)cc(N2Cc3cnc4[nH]ccc4c3N(C)C2=O)c1 [Example 1, 3-(3,5-Dimethoxyphenyl)-1-methyl-1,3,4,7-tetrahydro-2H-pyrrolo[3′,2′:5,6]pyrido[4,3-d]pyrimidin-2-one] | < 100 | < 100 | < 100 | –
2 | COc1cc(OC)cc(N2Cc3cnc4[nH]ccc4c3NC2=O)c1 [Example 2, 3-(3,5-Dimethoxyphenyl)-1,3,4,7-tetrahydro-2H-pyrrolo[3′,2′:5,6]pyrido[4,3-d]pyrimidin-2-one] | < 100 | < 100 | < 100 | –
3 | CCN1C(=O)N(c2cc(OC)cc(OC)c2)Cc2cnc3[nH]ccc3c21 [Example 3, 3-(3,5-Dimethoxyphenyl)-1-ethyl-1,3,4,7-tetrahydro-2H-pyrrolo[3′,2′:5,6]pyrido[4,3-d]pyrimidin-2-one] | < 100 | < 100 | < 100 | –
4 | COc1cc(OC)cc(N2Cc3cnc4[nH]ccc4c3N(C3CC3)C2=O)c1 [Example 4, 1-Cyclopropyl-3-(3,5-dimethoxyphenyl)-1,3,4,7-tetrahydro-2H-pyrrolo[3′,2′:5,6]pyrido[4,3-d]pyrimidin-2-one] | < 100 | < 100 | < 100 | –
5 | COc1cc(OC)cc(N2Cc3cnc4[nH]ccc4c3N(CC3CC3)C2=O)c1 [Example 5, 1-(Cyclopropylmethyl)-3-(3,5-dimethoxyphenyl)-1,3,4,7-tetrahydro-2H-pyrrolo[3′,2′:5,6]pyrido[4,3-d]pyrimidin-2-one] | < 100 | < 100 | < 100 | –
6 | COc1cc(OC)cc(N2Cc3cnc4[nH]ccc4c3N(Cc3ccccc3)C2=O)c1 [Example 6, 1-Benzyl-3-(3,5-dimethoxyphenyl)-1,3,4,7-tetrahydro-2H-pyrrolo[3′,2′:5,6]pyrido[4,3-d]pyrimidin-2-one] | < 100 | < 100 | < 100 | –
7 | COc1cc(OC)cc(N2Cc3cnc4[nH]c(-c5ccc(N6CCN(C)CC6)cc5)cc4c3N(C)C2=O)c1 [Example 10, 3-(3,5-Dimethoxyphenyl)-1-methyl-8-[4-(4-methylpiperazin-1-yl)phenyl]-1,3,4,7-tetrahydro-2H-pyrrolo[3′,2′:5,6]pyrido[4,3-d]pyrimidin-2-one] | < 100 | < 100 | < 100 | –
8 | COc1cc(OC)cc(N2Cc3cnc4[nH]c(-c5cnn(C)c5)cc4c3N(C)C2=O)c1 [Example 11, 3-(3,5-Dimethoxyphenyl)-1-methyl-8-(1-methyl-1H-pyrazol-4-yl)-1,3,4,7-tetrahydro-2H-pyrrolo[3′,2′:5,6]pyrido[4,3-d]pyrimidin-2-one] | < 100 | < 100 | < 100 | –
9 | CNC(=O)c1cc2c3c(cnc2[nH]1)CN(c1cc(OC)cc(OC)c1)C(=O)N3C [Example 12, 3-(3,5-Dimethoxyphenyl)-N,1-dimethyl-2-oxo-2,3,4,7-tetrahydro-1H-pyrrolo[3′,2′:5,6]pyrido[4,3-d]pyrimidine-8-carboxamide] | < 100 | < 100 | < 100 | –
10 | COc1cc(OC)c(Cl)c(N2Cc3cnc4[nH]c(-c5cnn(C)c5)cc4c3N(C)C2=O)c1 [Example 13, 3-(2-Chloro-3,5-dimethoxyphenyl)-1-methyl-8-(1-methyl-1H-pyrazol-4-yl)-1,3,4,7-tetrahydro-2H-pyrrolo[3′,2′:5,6]pyrido[4,3-d]pyrimidin-2-one] | < 100 | < 100 | < 100 | –
11 | COc1cc(OC)c(Cl)c(N2Cc3cnc4[nH]c(-c5cnn(CCO)c5)cc4c3N(C)C2=O)c1 [Example 14, 3-(2-Chloro-3,5-dimethoxyphenyl)-8-[1-(2-hydroxyethyl)-1H-pyrazol-4-yl]-1-methyl-1,3,4,7-tetrahydro-2H-pyrrolo[3′,2′:5,6]pyrido[4,3-d]pyrimidin-2-one] | < 100 | < 100 | < 100 | –
12 | COc1cc(OC)c(Cl)c(N2Cc3cnc4[nH]c(-c5ccnn5C)cc4c3N(C)C2=O)c1 [Example 15, 3-(2-Chloro-3,5-dimethoxyphenyl)-1-methyl-8-(1-methyl-1H-pyrazol-5-yl)-1,3,4,7-tetrahydro-2H-pyrrolo[3′,2′:5,6]pyrido[4,3-d]pyrimidin-2-one] | < 100 | < 100 | < 100 | –
13 | COc1cc(OC)c(Cl)c(N2Cc3cnc4[nH]c(C#N)cc4c3N(C)C2=O)c1 [Example 16, 3-(2-Chloro-3,5-dimethoxyphenyl)-1-methyl-2-oxo-2,3,4,7-tetrahydro-1H-pyrrolo[3′,2′:5,6]pyrido[4,3-d]pyrimidine-8-carbonitrile] | < 100 | < 100 | < 100 | –
14 | COc1cc(OC)cc(N2Cc3cnc4[nH]c(C5=CCN(C)CC5)cc4c3N(C)C2=O)c1 [Example 17, 3-(3,5-Dimethoxyphenyl)-1-methyl-8-(1-methyl-1,2,3,6-tetrahydropyridin-4-yl)-1,3,4,7-tetrahydro-2H-pyrrolo[3′,2′:5,6]pyrido[4,3-d]pyrimidin-2-one] | < 100 | – | < 100 | < 100
15 | COc1cc(OC)cc(N2Cc3cnc4[nH]c(C5CCN(C)CC5)cc4c3N(C)C2=O)c1 [Example 18, 3-(3,5-Dimethoxyphenyl)-1-methyl-8-(1-methylpiperidin-4-yl)-1,3,4,7-tetrahydro-2H-pyrrolo[3′,2′:5,6]pyrido[4,3-d]pyrimidin-2-one] | < 100 | < 100 | < 100 | –
16 | COc1cc(OC)cc(N2Cc3cnc4[nH]c(C(=O)N(C)C)cc4c3N(C)C2=O)c1 [Example 19, 3-(3,5-Dimethoxyphenyl)-N,N,1-trimethyl-2-oxo-2,3,4,7-tetrahydro-1H-pyrrolo[3′,2′:5,6]pyrido[4,3-d]pyrimidine-8-carboxamide] | < 100 | < 100 | < 100 | –
17 | COc1cc(OC)cc(N2Cc3cnc4[nH]c(C(=O)N5CC(O)C5)cc4c3N(C)C2=O)c1 [Example 20, 3-(3,5-Dimethoxyphenyl)-8-[(3-hydroxyazetidin-1-yl)carbonyl]-1-methyl-1,3,4,7-tetrahydro-2H-pyrrolo[3′,2′:5,6]pyrido[4,3-d]pyrimidin-2-one] | < 100 | < 100 | < 100 | –
18 | COc1cc(OC)cc(N2Cc3cnc4[nH]c(C(=O)N5CCC(O)C5)cc4c3N(C)C2=O)c1 (stereo not drawn) [Example 21, 3-(3,5-Dimethoxyphenyl)-8-[(3-hydroxypyrrolidin-1-yl)carbonyl]-1-methyl-1,3,4,7-tetrahydro-2H-pyrrolo[3′,2′:5,6]pyrido[4,3-d]pyrimidin-2-one] | < 100 | < 100 | < 100 | –
19 | COc1cc(OC)cc(N2Cc3cnc4[nH]c(C(=O)N5CCN(C)CC5)cc4c3N(C)C2=O)c1 [Example 22, 3-(3,5-Dimethoxyphenyl)-1-methyl-8-[(4-methylpiperazin-1-yl)carbonyl]-1,3,4,7-tetrahydro-2H-pyrrolo[3′,2′:5,6]pyrido[4,3-d]pyrimidin-2-one] | < 100 | < 100 | < 100 | –
20 | CNC(=O)c1cc2c3c(cnc2[nH]1)CN(c1cc(OC)cc(OC)c1Cl)C(=O)N3C [Example 23, 3-(2-Chloro-3,5-dimethoxyphenyl)-N,1-dimethyl-2-oxo-2,3,4,7-tetrahydro-1H-pyrrolo[3′,2′:5,6]pyrido[4,3-d]pyrimidine-8-carboxamide] | < 100 | < 100 | < 100 | –
21 | COc1cc(OC)c(Cl)c(N2Cc3cnc4[nH]c(C(=O)N(C)C)cc4c3N(C)C2=O)c1 [Example 24, 3-(2-Chloro-3,5-dimethoxyphenyl)-N,N,1-trimethyl-2-oxo-2,3,4,7-tetrahydro-1H-pyrrolo[3′,2′:5,6]pyrido[4,3-d]pyrimidine-8-carboxamide] | < 100 | < 100 | < 100 | –
22 | COc1cc(OC)c(Cl)c(N2Cc3cnc4[nH]c(C(=O)N5CC(O)C5)cc4c3N(C)C2=O)c1 [Example 25, 3-(2-Chloro-3,5-dimethoxyphenyl)-8-[(3-hydroxyazetidin-1-yl)carbonyl]-1-methyl-1,3,4,7-tetrahydro-2H-pyrrolo[3′,2′:5,6]pyrido[4,3-d]pyrimidin-2-one] | < 100 | < 100 | < 100 | –
23 | COc1cc(OC)c(F)c(N2Cc3cnc4c(c3N(C)C2=O)C2(CC2)C(=O)N4)c1F [Example 59, 3′-(2,6-Difluoro-3,5-dimethoxyphenyl)-1′-methyl-4′,7′-dihydrospiro[cyclopropane-1,9′-pyrrolo[3′,2′:5,6]pyrido[4,3-d]pyrimidine]-2′,8′(1′H,3′H)-dione] | < 100 | – | < 100 | –
24 | COc1cc(OC)c(F)c(N2Cc3cnc4c(c3N(c3cccc(F)c3F)C2=O)CC(=O)N4)c1F [Example 77, 3-(2,6-difluoro-3,5-dimethoxyphenyl)-1-(2,3-difluorophenyl)-3,4,7,9-tetrahydro-1H-pyrrolo[3′,2′:5,6]pyrido[4,3-d]pyrimidine-2,8-dione] | < 100 | – | < 100 | –
25 | COc1cc(OC)c(F)c(N2Cc3cnc4c(c3N(c3ccc(C#N)cc3)C2=O)CC(=O)N4)c1F [Example 122, 4-[3-(2,6-difluoro-3,5-dimethoxyphenyl)-2,8-dioxo-2,3,4,7,8,9-hexahydro-1H-pyrrolo[3′,2′:5,6]pyrido[4,3-d]pyrimidin-1-yl]benzonitrile] | < 100 | – | < 100 | –
